Reference: PubChem BioAssay AID1259407 (Chemical Carcinogenesis Research Information System (CCRIS), 2018)
The source made the active and inactive calls. No rule for the calls is given here.

Tested on: CCRIS mutagenicity, Ames/micronucleus/aberration tests
Assay: CCRIS mutagenicity studies

## Cc1ccc2cc3c(ccc4ccccc43)c3c2c1CC3
End Point: In vivo mutagenicity, Test System: Lung, Species: Rat, Strain/Sex: Big Blue/male, Route: Intraperitoneal
  mutagenic call: active; positive (11-fold increase in mutant frequency and an increase in transversion t
Test System: AMES SALMONELLA TYPHIMURIUM, Strain/Indicator: TA98, Metabolic Activation: RAT, BLADDER, S-9, PCB, Method: FLUCTUATION TEST
  mutagenic call: inactive; negative
Test System: AMES SALMONELLA TYPHIMURIUM, Strain/Indicator: TA98, Metabolic Activation: RAT, LIVER, S-9, PHENOBARBITAL, Method: STANDARD PLATE
  mutagenic call: active; positive
Test System: AMES SALMONELLA TYPHIMURIUM, Strain/Indicator: TA100, Metabolic Activation: MOUSE, LIVER, MICROSOMES, BENZO[E]PYRENE AND TCDD, Method: STANDARD PLATE
  mutagenic call: active; positive
Test System: AMES SALMONELLA TYPHIMURIUM, Strain/Indicator: TA100, Metabolic Activation: RAT, BLADDER, S-9, PCB, Method: FLUCTUATION TEST
  mutagenic call: active; positive
Test System: AMES SALMONELLA TYPHIMURIUM, Strain/Indicator: TA100, Metabolic Activation: RAT, LIVER, S-9, AROCLOR 1254, Method: STANDARD PLATE
  mutagenic call: active; positive
Test System: AMES SALMONELLA TYPHIMURIUM, Strain/Indicator: TA1535, Metabolic Activation: RAT, LIVER, S-9, AROCLOR 1254, Method: STANDARD PLATE
  mutagenic call: active; positive
Test System: AMES SALMONELLA TYPHIMURIUM, Strain/Indicator: TA1537, Metabolic Activation: RAT, LIVER, S-9, AROCLOR 1254, Method: STANDARD PLATE
  mutagenic call: active; positive
Test System: AMES SALMONELLA TYPHIMURIUM, Strain/Indicator: TA1538, Metabolic Activation: MOUSE, LIVER, S-9, PHENOBARBITAL, Method: PREINCUBATION
  mutagenic call: active; positive
Test System: AMES SALMONELLA TYPHIMURIUM, Strain/Indicator: TA1538, Metabolic Activation: RAT, LIVER, S-9, AROCLOR 1254, Method: STANDARD PLATE
  mutagenic call: active; positive
Test System: AMES SALMONELLA TYPHIMURIUM, Strain/Indicator: TA1538, Metabolic Activation: RAT, LIVER, S-9, PHENOBARBITAL, Method: STANDARD PLATE
  mutagenic call: active; positive
Test System: Ames Salmonella typhimurium, Strain/Indicator: TA98, Metabolic Activation: None, Method: Standard plate
  mutagenic call: active; positive (animals administered an onion (1% or 5%) diet for 1 month before the m
Test System: Ames Salmonella typhimurium, Strain/Indicator: TA98, Metabolic Activation: S-9, Method: Standard plate
  mutagenic call: active; positive (animals administered an onion (1% or 5%) diet for 1 month before the m
Test System: Ames Salmonella typhimurium, Strain/Indicator: TA100, Metabolic Activation: None, Method: Standard plate
  mutagenic call: active; positive (animals administered an onion (1% or 5%) diet for 1 month before the m
Test System: Ames Salmonella typhimurium, Strain/Indicator: TA100, Metabolic Activation: S-9, Method: Standard plate
  mutagenic call: active; positive (animals administered an onion (1% or 5%) diet for 1 month before the m
Test System: CHINESE HAMSTER OVARY, Strain/Indicator: CHO-K1-BH4 (HGPRT), Metabolic Activation: RAT, LIVER, S-9, AROCLOR, Method: SUSPENSION/PLATE
  mutagenic call: active; positive
Test System: CHINESE HAMSTER V-79, Strain/Indicator: V-79/6-THIOGUANINE, Metabolic Activation: RAT, LIVER, S-9, PHENOBARBITAL, Method: STANDARD PLATE
  mutagenic call: active; positive
Test System: CHINESE HAMSTER V-79, Strain/Indicator: V-79/8-AZAGUANINE, Metabolic Activation: CELL-MEDIATED, Method: STANDARD PLATE
  mutagenic call: active; positive
Test System: E. COLI, Strain/Indicator: WP2 UVRA, Metabolic Activation: HAMSTER, LIVER, S-9, AROCLOR 1254, Method: STANDARD PLATE
  mutagenic call: inactive; negative
Test System: E. COLI, Strain/Indicator: WP2 UVRA, Metabolic Activation: HAMSTER, LIVER, S-9, Method: STANDARD PLATE
  mutagenic call: inactive; negative
Test System: E. COLI, Strain/Indicator: WP2 UVRA, Metabolic Activation: MOUSE, LIVER, S-9, AROCLOR 1254, Method: STANDARD PLATE
  mutagenic call: inactive; negative
Test System: E. COLI, Strain/Indicator: WP2 UVRA, Metabolic Activation: MOUSE, LIVER, S-9, Method: STANDARD PLATE
  mutagenic call: inactive; negative
Test System: E. COLI, Strain/Indicator: WP2 UVRA, Metabolic Activation: NONE, Method: STANDARD PLATE
  mutagenic call: inactive; negative
Test System: E. COLI, Strain/Indicator: WP2 UVRA, Metabolic Activation: RAT, LIVER, S-9, AROCLOR 1254, Method: STANDARD PLATE
  mutagenic call: inactive; negative
Test System: E. COLI, Strain/Indicator: WP2 UVRA, Metabolic Activation: RAT, LIVER, S-9, Method: STANDARD PLATE
  mutagenic call: inactive; negative
Test System: UDS HUMAN FIBROBLASTS, Strain/Indicator: THY INCORP (NON-S-PHASE), Metabolic Activation: NONE, Method: LIQUID SCINTILLATION COUNTING
  mutagenic call: active; positive
Test System: UDS RODENT HEPATOCYTES, Strain/Indicator: THY INCORP (NON-S-PHASE), Method: LIQUID SCINTILLATION COUNTING
  mutagenic call: active; positive
Test System: UDS RODENT PRIMARY CELLS, Strain/Indicator: THY INCORP (NON-S-PHASE), Metabolic Activation: NONE, Method: AUTORADIOGRAPHY
  mutagenic call: active; positive
